US4476120A, “Thiolic derivatives of erythromycin having therapeutic activity, and pharmaceutical compositions containing them” (Sigma Tau Indistrie Farmaceutiche Riunites, p.A, priority 1982, dated 1984)
Converted amounts (≈) assume the structure as drawn.

Key:
Staph. albus SS 03 = format: cell-based; details: Brain Heart Infusion, estolate and RV11-RV15 previously hydrolized, unit assumed
Staph. albus SS 04 = format: cell-based; details: Brain Heart Infusion, estolate and RV11-RV15 previously hydrolized, unit assumed
Staph. aureus SS 07 [1] = format: cell-based; details: Brain Heart Infusion, estolate and RV11-RV15 previously hydrolized, unit assumed
Staph. aureus SS 08 = format: cell-based; details: Brain Heart Infusion, estolate and RV11-RV15 previously hydrolized, unit assumed
Staph. aureus SS 10 = format: cell-based; details: Brain Heart Infusion, estolate and RV11-RV15 previously hydrolized, unit assumed
[2] = test system: Strept. haemolyticus SS 17; format: cell-based; details: Brain Heart Infusion, estolate and RV11-RV15 previously hydrolized, unit assumed
[3] = test system: Strept. haemolyticus SS 18; format: cell-based; details: Brain Heart Infusion, estolate and RV11-RV15 previously hydrolized, unit assumed
Strept. faecalis SS 19 = format: cell-based; details: Brain Heart Infusion, estolate and RV11-RV15 previously hydrolized, unit assumed
S. lutea ATCC 9341 = format: cell-based; details: Brain Heart Infusion, estolate and RV11-RV15 previously hydrolized, unit assumed
B. subtilis ATCC 6633 = format: cell-based; details: Brain Heart Infusion, estolate and RV11-RV15 previously hydrolized, unit assumed
B. subtilis SS 127 = format: cell-based; details: Brain Heart Infusion, estolate and RV11-RV15 previously hydrolized, unit assumed
B. cereus ATCC 11778 = format: cell-based; details: Brain Heart Infusion, estolate and RV11-RV15 previously hydrolized, unit assumed
B. anthranis SS 08 = format: cell-based; details: Brain Heart Infusion, estolate and RV11-RV15 previously hydrolized, unit assumed
Br. melitensis SS 19 = format: cell-based; details: unit assumed
Citrobacter SS 05 = format: cell-based; details: Brain Heart Infusion, estolate and RV11-RV15 previously hydrolized, unit assumed
S. infantis SS 08 = format: cell-based; details: Brain Heart Infusion, estolate and RV11-RV15 previously hydrolized, unit assumed
S. heidelberg SS 18 = format: cell-based; details: Brain Heart Infusion, estolate and RV11-RV15 previously hydrolized, unit assumed
E. cloacae SS 07 = format: cell-based; details: Brain Heart Infusion, estolate and RV11-RV15 previously hydrolized, unit assumed
E. aerogenes SS 011 = format: cell-based; details: Brain Heart Infusion, estolate and RV11-RV15 previously hydrolized, unit assumed
Ps. aeruginosa SS 10 = format: cell-based; details: Brain Heart Infusion, estolate and RV11-RV15 previously hydrolized, unit assumed
E. coli SS 04 = format: cell-based; details: Brain Heart Infusion, estolate and RV11-RV15 previously hydrolized, unit assumed
E. coli SS 05 = format: cell-based; details: Brain Heart Infusion, estolate and RV11-RV15 previously hydrolized, unit assumed
E. coli SS 06 = format: cell-based; details: Brain Heart Infusion, estolate and RV11-RV15 previously hydrolized, unit assumed
E. coli SS 07 = format: cell-based; details: Brain Heart Infusion, estolate and RV11-RV15 previously hydrolized, unit assumed
Pr. mirabilis SS 09 = format: cell-based; details: Brain Heart Infusion, estolate and RV11-RV15 previously hydrolized, unit assumed
Pr. vulgaris SS 10 = format: cell-based; details: Brain Heart Infusion, estolate and RV11-RV15 previously hydrolized, unit assumed
Kl. aerogenes SS 71 = format: cell-based; details: Brain Heart Infusion, estolate and RV11-RV15 previously hydrolized, unit assumed
H. tubercolosis SS 03 = format: cell-based; details: Brain Heart Infusion, estolate and RV11-RV15 previously hydrolized, unit assumed
Source text: (§1) In the following table I the MIC/ml values are indicated corresponding to the lowest concentration capable of inducing a complete inhibition of the bacterial development.

Kl. pneumoniae SS 04 = format: cell-based; details: Brain Heart Infusion, estolate and RV11-RV15 previously hydrolized, unit assumed
Source text: as §1

Sr. marcescens SS 03 = format: cell-based; details: Brain Heart Infusion, estolate and RV11-RV15 previously hydrolized, unit assumed
C. diphtheriae SS 19 = format: cell-based; details: Brain Heart Infusion, estolate and RV11-RV15 previously hydrolized, unit assumed
D. pneumoniae SS 23 [4] = format: cell-based; details: Brain Heart Infusion, estolate and RV11-RV15 previously hydrolized, unit assumed
N. gonorreae SS 27 = format: cell-based; details: Brain Heart Infusion, estolate and RV11-RV15 previously hydrolized, unit assumed
N. meningitidis SS 04 = format: cell-based; details: Brain Heart Infusion, estolate and RV11-RV15 previously hydrolized, unit assumed
H. influentiae SS 02 = format: cell-based; details: Brain Heart Infusion, estolate and RV11-RV15 previously hydrolized, unit assumed
H. pertussis SS 03 = format: cell-based; details: Brain Heart Infusion, estolate and RV11-RV15 previously hydrolized, unit assumed
C. albicans SS 04 = format: cell-based; details: Brain Heart Infusion, estolate and RV11-RV15 previously hydrolized, unit assumed
Cl. tetani SS 17 = format: cell-based; details: Brain Heart Infusion, estolate and RV11-RV15 previously hydrolized, unit assumed
B. anthranis SS 09 = format: cell-based; details: B. anthranis SS 09 (14 bis); Brain Heart Infusion; estolate and RV11-RV15 previously hydrolized; unit assumed
Acute toxicity = format: in vivo; details: mouse, in vivo, po, 14400 min
Description: The acute toxicity was assessed in Swiss white mice by oral and intravenous route. The LD50 values have been calculated by the methods of Probits, starting from the mortality recorded 10 days after the treatment.

Staph. aureus SS 07 [5] = experiment: Experimental infection induced by Staph. aureus SS 07; format: in vivo, Swiss white mice; details: os; Staph. aureus SS 07; mg/kg of erythromycin; survival after 7 days; 10080 min
In short: (§2)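 Swiss mice of 20 g infected parenterally with lethal amounts of Staph. aureus SS 07 or D. pneumoniae SS 23. Antibiotics were given at infection and again 6 and 24 h later. ED50 was derived from survival at 7 days.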

D. pneumoniae SS 23 [6] = experiment: Experimental infection induced by D. pneumoniae SS 23; format: in vivo, Swiss white mice; details: os; D. pneumoniae SS 23; mg/kg of erythromycin; survival after 7 days; 10080 min
In short: as §2

[7] = Histological examination of bronchi after SO2 inhalation; format: in vivo, Sprague Dawley male rats; details: oral, 500 mg/kg; for histological appearance of non obstructed bronchi: free non obstructed

## CCC(=O)O[C@H]1[C@H](O[C@@H]2[C@@H](C)[C@H](O[C@H]3C[C@@](C)(OC)[C@@H](O)[C@H](C)O3)[C@@H](C)C(=O)O[C@H](CC)[C@@](C)(O)[C@H](O)[C@@H](C)C(=O)[C@H](C)C[C@@]2(C)O)O[C@H](C)C[C@@H]1N(C)C [RV13, erythromycin-monopropionate-thiazolidin-carboxylate]
Staph. albus SS 03
  MIC: 0.05 µg/mL (≈ 0.0633 µM)
Staph. albus SS 04
  MIC: 0.025 µg/mL (≈ 0.0316 µM)
Staph. aureus SS 07 [1]
  MIC: 0.025 µg/mL (≈ 0.0316 µM)
Staph. aureus SS 08
  MIC: 0.05 µg/mL (≈ 0.0633 µM)
Staph. aureus SS 10
  MIC: 0.1 µg/mL (≈ 0.127 µM)
[2]
  MIC: 1.5 µg/mL (≈ 1.9 µM)
[3]
  MIC: 1.5 µg/mL (≈ 1.9 µM)
Strept. faecalis SS 19
  MIC: 0.05 µg/mL (≈ 0.0633 µM)
S. lutea ATCC 9341
  MIC: 0.025 µg/mL (≈ 0.0316 µM)
B. subtilis ATCC 6633
  MIC: 0.025 µg/mL (≈ 0.0316 µM)
B. subtilis SS 127
  MIC: 0.025 µg/mL (≈ 0.0316 µM)
B. cereus ATCC 11778
  MIC: 0.8 µg/mL (≈ 1.01 µM)
B. anthranis SS 08
  MIC: 0.4 µg/mL (≈ 0.506 µM)
Br. melitensis SS 19
  MIC: 3 µg/mL (≈ 3.8 µM)
Citrobacter SS 05
  MIC: > 200 µg/mL
S. infantis SS 08
  MIC: 100 µg/mL (≈ 127 µM)
S. heidelberg SS 18
  MIC: 100 µg/mL (≈ 127 µM)
E. cloacae SS 07
  MIC: > 200 µg/mL
E. aerogenes SS 011
  MIC: 50 µg/mL (≈ 63.3 µM)
Ps. aeruginosa SS 10
  MIC: 100 µg/mL (≈ 127 µM)
E. coli SS 04
  MIC: 100 µg/mL (≈ 127 µM)
E. coli SS 05
  MIC: 50 µg/mL (≈ 63.3 µM)
E. coli SS 06
  MIC: 50 µg/mL (≈ 63.3 µM)
E. coli SS 07
  MIC: 50 µg/mL (≈ 63.3 µM)
Pr. mirabilis SS 09
  MIC: > 200 µg/mL
Pr. vulgaris SS 10
  MIC: > 200 µg/mL
Kl. aerogenes SS 71
  MIC: 100 µg/mL (≈ 127 µM)
H. tubercolosis SS 03
  MIC: 50 µg/mL (≈ 63.3 µM)
Kl. pneumoniae SS 04
  MIC: 100 µg/mL (≈ 127 µM)
Sr. marcescens SS 03
  MIC: 100 µg/mL (≈ 127 µM)
C. diphtheriae SS 19
  MIC: 0.01 µg/mL (≈ 0.0127 µM)
D. pneumoniae SS 23 [4]
  MIC: 0.025 µg/mL (≈ 0.0316 µM)
N. gonorreae SS 27
  MIC: 0.8 µg/mL (≈ 1.01 µM)
N. meningitidis SS 04
  MIC: 0.8 µg/mL (≈ 1.01 µM)
H. influentiae SS 02
  MIC: 1.5 µg/mL (≈ 1.9 µM)
H. pertussis SS 03
  MIC: 0.2 µg/mL (≈ 0.253 µM)
C. albicans SS 04
  MIC: 100 µg/mL (≈ 127 µM)
Cl. tetani SS 17
  MIC: 0.2 µg/mL (≈ 0.253 µM)
B. anthranis SS 09
  MIC: 0.4 µg/mL (≈ 0.506 µM)
Acute toxicity
  LD50 (reliability limits): 3000 mg·kg
Staph. aureus SS 07 [5]
  ED50 (reliability limits): 2.20 (2.44-1.99) mg/kg
D. pneumoniae SS 23 [6]
  ED50 (reliability limits): 113.88 (144.73-89.60) mg/kg
[7]
  histological appearance of non obstructed bronchi: presence of bronchi having almost normal appearance
  histological appearance of obstructed bronchial tract: fully like that of the control animals

## CCC(=O)O[C@H]1[C@H](O[C@@H]2[C@@H](C)[C@H](O[C@H]3C[C@@](C)(OC)[C@@H](O)[C@H](C)O3)[C@@H](C)C(=O)O[C@H](CC)[C@@](C)(O)[C@H](O)[C@@H](C)C(=O)[C@H](C)C[C@@]2(C)O)O[C@H](C)C[C@@H]1N(C)C [RV15, erythromycin monopropionate N-acetylcysteinate]
Staph. albus SS 03
  MIC: 0.25 µg/mL (≈ 0.316 µM)
Staph. albus SS 04
  MIC: 0.05 µg/mL (≈ 0.0633 µM)
Staph. aureus SS 07 [1]
  MIC: 0.025 µg/mL (≈ 0.0316 µM)
Staph. aureus SS 08
  MIC: 0.025 µg/mL (≈ 0.0316 µM)
Staph. aureus SS 10
  MIC: 0.05 µg/mL (≈ 0.0633 µM)
[2]
  MIC: 1.5 µg/mL (≈ 1.9 µM)
[3]
  MIC: 3 µg/mL (≈ 3.8 µM)
Strept. faecalis SS 19
  MIC: 0.05 µg/mL (≈ 0.0633 µM)
S. lutea ATCC 9341
  MIC: 0.01 µg/mL (≈ 0.0127 µM)
B. subtilis ATCC 6633
  MIC: 0.01 µg/mL (≈ 0.0127 µM)
B. subtilis SS 127
  MIC: 0.025 µg/mL (≈ 0.0316 µM)
B. cereus ATCC 11778
  MIC: 0.4 µg/mL (≈ 0.506 µM)
B. anthranis SS 08
  MIC: 0.4 µg/mL (≈ 0.506 µM)
Br. melitensis SS 19
  MIC: 3 µg/mL (≈ 3.8 µM)
Citrobacter SS 05
  MIC: > 200 µg/mL
S. infantis SS 08
  MIC: 100 µg/mL (≈ 127 µM)
S. heidelberg SS 18
  MIC: 100 µg/mL (≈ 127 µM)
E. cloacae SS 07
  MIC: > 200 µg/mL
E. aerogenes SS 011
  MIC: 50 µg/mL (≈ 63.3 µM)
Ps. aeruginosa SS 10
  MIC: 100 µg/mL (≈ 127 µM)
E. coli SS 04
  MIC: 50 µg/mL (≈ 63.3 µM)
E. coli SS 05
  MIC: 100 µg/mL (≈ 127 µM)
E. coli SS 06
  MIC: 25 µg/mL (≈ 31.6 µM)
E. coli SS 07
  MIC: 50 µg/mL (≈ 63.3 µM)
Pr. mirabilis SS 09
  MIC: > 200 µg/mL
Pr. vulgaris SS 10
  MIC: > 200 µg/mL
Kl. aerogenes SS 71
  MIC: 100 µg/mL (≈ 127 µM)
H. tubercolosis SS 03
  MIC: 50 µg/mL (≈ 63.3 µM)
Kl. pneumoniae SS 04
  MIC: 100 µg/mL (≈ 127 µM)
Sr. marcescens SS 03
  MIC: 200 µg/mL (≈ 253 µM)
C. diphtheriae SS 19
  MIC: 0.02 µg/mL (≈ 0.0253 µM)
D. pneumoniae SS 23 [4]
  MIC: 0.05 µg/mL (≈ 0.0633 µM)
N. gonorreae SS 27
  MIC: 0.8 µg/mL (≈ 1.01 µM)
N. meningitidis SS 04
  MIC: 0.8 µg/mL (≈ 1.01 µM)
H. influentiae SS 02
  MIC: 1.5 µg/mL (≈ 1.9 µM)
H. pertussis SS 03
  MIC: 0.2 µg/mL (≈ 0.253 µM)
C. albicans SS 04
  MIC: 200 µg/mL (≈ 253 µM)
Cl. tetani SS 17
  MIC: 0.2 µg/mL (≈ 0.253 µM)
B. anthranis SS 09
  MIC: 0.4 µg/mL (≈ 0.506 µM)
Acute toxicity
  LD50 (reliability limits): 3000 mg·kg
Staph. aureus SS 07 [5]
  ED50 (reliability limits): 2.10 (2.49-1.92) mg/kg
D. pneumoniae SS 23 [6]
  ED50 (reliability limits): 110.90 (135.28-90.92) mg/kg
[7]
  histological appearance of non obstructed bronchi: presence of bronchi having almost normal appearance
  histological appearance of obstructed bronchial tract: fully like that of the control animals
